Data from patent publication US9416115B2, “Fused heterocyclic compounds as ion channel modulators” (Gilead Sciences, Inc., priority 2013, dated 2016).

Legend:
[1] = target: wild-type human cardiac sodium channel, hNav1.5 (Homo sapiens, UniProt Q14524); assay: Late INa screening assay (QPatch whole cell patch clamp, Tefluthrin-induced late current); format: cell-based; settings: HEK293 hNav1.5, percent block of late INa
Procedure, shortened: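 HEK293 cells stably expressing hNav1.5 without beta subunits were whole-cell patch clamped at 23-25 °C, stepping from −120 to −20 mV for 250 ms at 0.1 Hz. Late current (240–265 ms) was induced with 10 μM Tefluthrin, and compounds were added typically at 0.3 or 1 μM. Percent block was taken against 0 Na baseline with rundown correction.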

[2] = target: T1, hNaV1.2 (SCN2A) (Homo sapiens, UniProt Q99250); assay: Use-dependent inhibition of the CNS Nav1.2 sodium channel; format: cell-based; settings: use-dependent block, 25 Hz, pulse 20, read-out: Nav1.2 UDB 25 Hz 10 uM
T1 construct: expressed in transfected cells
Method: HEK-293 cells stably expressing wild-type (WT) hNaV1.2 (SCN2A NCBI # NM_021007.2, SCN1B NCBI # NM_001037.4, SCN2B NCBI # NM_004588.2) were used to record INa. Cells are maintained with standard tissue culture procedures and stable channel expression is maintained with 800 ug/mL G418 and 3 ug/mL Puromycin in the culture medium. Unless otherwise noted, all reagents are purchased from Sigma-Aldrich (St Louis, Mo., U.S.A.).
Assays measuring Use-Dependent Block (UDB) of Nav1.2 are performed on an automated electrophysiology platform, QPatch 16X or QPatch HT (Sophion Bioscience, Copenhagen, Denmark), using the whole cell patch clamp technique to measure currents through the cell membrane. Series resistance compensation is set to 100% and series resistance and whole-cell compensation are performed automatically. Currents stored in the Sophion Bioscience Oracle database (Sophion Bioscience, Copenhagen, Denmark). Analysis is performed using QPatch Assay software and data are compiled in Excel 2010 (Microsoft, Seattle, Wash., U.S.A.).
The internal (pipette) solution consists of (in mM) 105 CsF, 10 NaF, 20 CsCl, 2 EGTA, 10 HEPES, 10 Dextrose with a pH of 7.35 and osmolarity of 300 mOsmol/kg. The external (bath) solution contains in (mM): 145 NaCl, 4 KCl, 1.8 CaCl2, 1 MgCl2, 10 dextrose, 10 HEPES, with a pH of 7.35 and osmolarity of 310 mOsmol/kg. Experiments are carried out at 23-25° C.
Compound stocks are routinely made by the Gilead Sample Bank in vials to 10 mM in dimethyl sulfoxide (DMSO). In some cases, when compounds are not soluble in DMSO, they are made in 100% ethanol. Stocks are sonicated as necessary. […]
Cells are allowed to stabilize for 10 min after establishment of the whole-cell configuration before current is measured. The test compound is applied 2 times at 60 second intervals. After the second compound addition, a 200 second wait period was imposed to allow for equilibration. Leak currents are subtracted by using an online P/4 procedure and all currents are low-pass Bessel filtered at 5 kHz and digitized at […].
Results are presented as mean percentage inhibition.
Use-dependent block of Nav1.2 peak current is measured during pulse number 20 of a voltage pulse train (0 mV, 20 ms, 20 pulses, 25 Hz) from a holding potential of −120 mV.
Currents are normalized to the peak current recorded in response to the first pulse in each frequency train. The voltage protocol for UDB was performed in the absence and presence of compound and percentage inhibition was calculated with respect to the compound free condition.

T1 sequence (Q99250 whole entry): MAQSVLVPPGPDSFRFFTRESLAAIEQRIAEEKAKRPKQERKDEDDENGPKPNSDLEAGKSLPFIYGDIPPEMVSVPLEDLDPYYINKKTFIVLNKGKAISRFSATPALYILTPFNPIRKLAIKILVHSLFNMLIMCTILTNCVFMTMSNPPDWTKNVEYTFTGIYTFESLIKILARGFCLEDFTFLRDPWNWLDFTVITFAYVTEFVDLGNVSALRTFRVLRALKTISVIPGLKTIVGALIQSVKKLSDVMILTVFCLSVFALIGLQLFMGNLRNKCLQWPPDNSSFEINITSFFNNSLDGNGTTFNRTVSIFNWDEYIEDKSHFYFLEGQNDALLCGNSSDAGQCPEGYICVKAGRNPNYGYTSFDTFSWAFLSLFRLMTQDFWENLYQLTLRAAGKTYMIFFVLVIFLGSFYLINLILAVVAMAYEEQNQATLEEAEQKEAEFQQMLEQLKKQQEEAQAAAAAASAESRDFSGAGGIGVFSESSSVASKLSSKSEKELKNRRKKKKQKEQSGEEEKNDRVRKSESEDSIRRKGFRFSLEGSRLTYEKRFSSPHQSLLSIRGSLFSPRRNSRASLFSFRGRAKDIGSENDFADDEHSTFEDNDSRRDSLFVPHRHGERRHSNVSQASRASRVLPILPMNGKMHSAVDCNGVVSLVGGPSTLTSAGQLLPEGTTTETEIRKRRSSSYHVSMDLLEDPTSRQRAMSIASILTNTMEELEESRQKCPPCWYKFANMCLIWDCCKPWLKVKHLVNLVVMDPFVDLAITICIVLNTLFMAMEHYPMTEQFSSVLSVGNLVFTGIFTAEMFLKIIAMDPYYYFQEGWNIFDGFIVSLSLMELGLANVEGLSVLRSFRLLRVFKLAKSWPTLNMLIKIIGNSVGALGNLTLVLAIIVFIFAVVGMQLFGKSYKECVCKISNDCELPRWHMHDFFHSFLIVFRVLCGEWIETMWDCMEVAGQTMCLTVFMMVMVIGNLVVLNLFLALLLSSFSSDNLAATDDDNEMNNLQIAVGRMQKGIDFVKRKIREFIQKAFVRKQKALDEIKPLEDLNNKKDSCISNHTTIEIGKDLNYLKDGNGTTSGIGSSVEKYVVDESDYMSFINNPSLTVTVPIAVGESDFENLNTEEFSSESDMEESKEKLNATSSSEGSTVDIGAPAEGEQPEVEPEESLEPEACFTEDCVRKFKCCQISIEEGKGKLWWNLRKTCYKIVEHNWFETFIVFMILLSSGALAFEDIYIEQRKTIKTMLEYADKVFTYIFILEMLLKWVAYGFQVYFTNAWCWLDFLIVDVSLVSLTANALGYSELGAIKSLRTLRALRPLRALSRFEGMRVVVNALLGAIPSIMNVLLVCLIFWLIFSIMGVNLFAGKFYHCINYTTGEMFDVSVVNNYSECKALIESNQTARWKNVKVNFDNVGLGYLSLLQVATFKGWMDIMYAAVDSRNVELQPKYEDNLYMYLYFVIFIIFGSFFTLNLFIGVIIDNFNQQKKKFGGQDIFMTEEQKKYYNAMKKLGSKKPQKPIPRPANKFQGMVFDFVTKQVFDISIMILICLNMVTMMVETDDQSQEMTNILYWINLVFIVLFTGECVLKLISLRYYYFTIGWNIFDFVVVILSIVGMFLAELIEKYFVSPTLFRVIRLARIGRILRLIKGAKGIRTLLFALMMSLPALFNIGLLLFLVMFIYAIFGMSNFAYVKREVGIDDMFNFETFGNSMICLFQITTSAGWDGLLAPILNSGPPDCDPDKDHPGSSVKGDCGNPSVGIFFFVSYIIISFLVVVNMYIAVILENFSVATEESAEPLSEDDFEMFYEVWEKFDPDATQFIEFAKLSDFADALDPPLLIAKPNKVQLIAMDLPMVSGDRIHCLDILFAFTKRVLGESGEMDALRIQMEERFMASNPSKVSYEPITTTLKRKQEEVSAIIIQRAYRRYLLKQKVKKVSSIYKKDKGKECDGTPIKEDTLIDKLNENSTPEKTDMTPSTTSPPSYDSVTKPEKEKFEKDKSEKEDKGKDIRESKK
T1 sequence (Q07699 19-218 partner): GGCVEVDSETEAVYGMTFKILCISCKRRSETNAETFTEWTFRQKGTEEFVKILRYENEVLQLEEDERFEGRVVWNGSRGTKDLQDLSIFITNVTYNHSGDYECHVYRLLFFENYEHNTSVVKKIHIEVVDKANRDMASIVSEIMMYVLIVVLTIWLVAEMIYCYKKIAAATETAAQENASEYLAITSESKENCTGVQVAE
T1 sequence (O60939 30-215 partner): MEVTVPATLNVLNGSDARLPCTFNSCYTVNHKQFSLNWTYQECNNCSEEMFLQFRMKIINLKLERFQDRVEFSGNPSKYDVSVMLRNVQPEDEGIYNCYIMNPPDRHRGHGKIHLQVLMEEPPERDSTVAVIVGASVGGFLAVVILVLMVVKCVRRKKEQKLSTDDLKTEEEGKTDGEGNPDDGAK
Sequence of wild-type human cardiac sodium channel, hNav1.5 (Q14524 whole entry): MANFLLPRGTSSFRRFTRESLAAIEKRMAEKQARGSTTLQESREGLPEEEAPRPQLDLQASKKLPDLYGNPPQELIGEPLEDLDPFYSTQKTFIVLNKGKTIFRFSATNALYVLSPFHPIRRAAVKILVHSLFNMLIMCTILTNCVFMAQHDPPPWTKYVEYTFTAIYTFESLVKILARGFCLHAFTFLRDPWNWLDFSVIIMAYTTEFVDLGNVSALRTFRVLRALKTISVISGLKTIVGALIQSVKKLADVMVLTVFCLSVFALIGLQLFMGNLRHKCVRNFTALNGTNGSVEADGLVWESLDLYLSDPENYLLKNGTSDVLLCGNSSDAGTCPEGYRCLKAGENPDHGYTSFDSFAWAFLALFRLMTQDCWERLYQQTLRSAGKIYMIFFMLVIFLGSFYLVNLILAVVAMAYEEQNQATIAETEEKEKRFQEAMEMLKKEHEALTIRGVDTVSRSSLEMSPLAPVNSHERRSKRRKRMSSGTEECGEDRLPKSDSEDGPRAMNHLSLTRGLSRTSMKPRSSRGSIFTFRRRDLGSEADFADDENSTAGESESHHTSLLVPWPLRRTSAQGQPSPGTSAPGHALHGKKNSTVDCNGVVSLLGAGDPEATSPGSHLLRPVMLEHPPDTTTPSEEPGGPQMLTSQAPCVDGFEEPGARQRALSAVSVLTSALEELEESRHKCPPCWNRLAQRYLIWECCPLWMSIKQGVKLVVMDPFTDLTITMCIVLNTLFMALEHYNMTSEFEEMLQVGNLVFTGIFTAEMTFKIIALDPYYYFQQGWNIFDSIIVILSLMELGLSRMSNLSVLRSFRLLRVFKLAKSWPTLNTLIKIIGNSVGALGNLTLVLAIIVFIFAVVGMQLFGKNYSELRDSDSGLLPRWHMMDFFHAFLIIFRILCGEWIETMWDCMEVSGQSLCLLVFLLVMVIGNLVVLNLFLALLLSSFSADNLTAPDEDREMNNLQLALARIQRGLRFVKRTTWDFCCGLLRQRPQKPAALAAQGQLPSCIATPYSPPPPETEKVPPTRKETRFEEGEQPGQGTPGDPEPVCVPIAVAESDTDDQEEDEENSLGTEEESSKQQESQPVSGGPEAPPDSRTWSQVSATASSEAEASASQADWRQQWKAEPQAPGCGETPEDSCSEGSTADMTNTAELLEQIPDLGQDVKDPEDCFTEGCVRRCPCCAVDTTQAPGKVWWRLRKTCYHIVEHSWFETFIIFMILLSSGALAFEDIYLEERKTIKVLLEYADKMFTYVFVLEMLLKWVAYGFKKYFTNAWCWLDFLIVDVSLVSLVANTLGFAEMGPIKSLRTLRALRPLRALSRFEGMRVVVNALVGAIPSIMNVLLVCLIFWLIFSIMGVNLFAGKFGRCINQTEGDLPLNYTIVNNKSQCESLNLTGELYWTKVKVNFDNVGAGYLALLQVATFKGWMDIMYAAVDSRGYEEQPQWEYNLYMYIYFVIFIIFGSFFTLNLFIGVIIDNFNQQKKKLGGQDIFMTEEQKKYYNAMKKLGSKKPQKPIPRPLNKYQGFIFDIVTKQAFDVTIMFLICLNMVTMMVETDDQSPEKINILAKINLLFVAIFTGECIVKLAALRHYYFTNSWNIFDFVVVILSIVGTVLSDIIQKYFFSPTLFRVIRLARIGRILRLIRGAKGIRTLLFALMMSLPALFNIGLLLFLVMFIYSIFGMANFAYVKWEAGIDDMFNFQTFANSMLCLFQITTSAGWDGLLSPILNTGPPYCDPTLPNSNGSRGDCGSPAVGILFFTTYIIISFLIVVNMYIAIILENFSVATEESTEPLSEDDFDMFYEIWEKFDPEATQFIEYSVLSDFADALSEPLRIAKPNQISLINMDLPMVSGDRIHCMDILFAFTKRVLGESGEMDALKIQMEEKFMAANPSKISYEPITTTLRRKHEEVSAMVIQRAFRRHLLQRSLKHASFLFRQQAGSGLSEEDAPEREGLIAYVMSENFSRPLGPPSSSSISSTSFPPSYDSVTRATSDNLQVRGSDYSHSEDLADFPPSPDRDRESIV

Compound: FC(F)(F)Oc1ccc(-c2ccc3onc(NCc4ncccn4)c3c2)cc1 [Example 126, N-(pyrimidin-2-ylmethyl)-5-(4-(trifluoromethoxy)phenyl)benzo[d]isoxazol-3-amine]
- inhibition at 1 µM [1]: 50%
- inhibition at 10 µM [2]: < 5%

Compound: CC(=O)N1CC(COc2noc3ccc(-c4ccc(OC(F)(F)F)cc4)cc23)C1 [Example 110, 1-(3-(((5-(4-(trifluoromethoxy)phenyl)benzo[d]isoxazol-3-yl)oxy)methyl)azetidin-1-yl)ethan-1-one]
- inhibition at 0.3 µM [1]: 25.7%
- inhibition at 1 µM [1]: 62.7%
- inhibition at 10 µM [2]: 67.3%

Compound: CCn1ccnc1COc1noc2ccc(-c3ccc(OC(F)(F)F)cc3)cc12 [Example 47, 3-((1-ethyl-1H-imidazol-2-yl)methoxy)-5-(4-(trifluoromethoxy)phenyl)benzo[d]isoxazole]
- inhibition at 0.3 µM [1]: 20%
- inhibition at 1 µM [1]: 60.2%
- inhibition at 10 µM [2]: 31.5%

Compound: FC(F)(F)c1ccc(-c2ccc3onc(OCc4ncccn4)c3c2)cc1 [Example 9, 3-(pyrimidin-2-ylmethoxy)-5-(4-(trifluoromethyl)phenyl)benzo[d]isoxazole]
- inhibition at 0.3 µM [1]: 36.4%
- inhibition at 1 µM [1]: 58.9%
- inhibition at 10 µM [2]: < 5%

Compound: FC(F)(F)Oc1ccc(-c2ccc3onc(OCc4nnc(C5CC5)o4)c3c2)cc1 [Example 96, 3-((5-cyclopropyl-1,3,4-oxadiazol-2-yl)methoxy)-5-(4-(trifluoromethoxy)phenyl)benzo[d]isoxazole]
- inhibition at 0.3 µM [1]: 21.1%
- inhibition at 1 µM [1]: 59.2%
- inhibition at 10 µM [2]: 5.7%

Compound: FC(F)(F)Oc1ccc(-c2ccc3onc(N4CCOCC4)c3c2)cc1 [Example 130, 3-morpholino-5-(4-(trifluoromethoxy)phenyl)benzo[d]isoxazole]
- inhibition at 1 µM [1]: 38.3%
- inhibition at 10 µM [2]: < 5%

Compound: FC(F)(F)Oc1ccc(-c2ccc3onc(NCc4ncco4)c3c2)cc1 [Example 156, N-(oxazol-2-ylmethyl)-5-(4-(trifluoromethoxy)phenyl)benzo[d]isoxazol-3-amine]
- inhibition at 0.3 µM [1]: 37.9%
- inhibition at 1 µM [1]: 62.8%
- inhibition at 10 µM [2]: 10.6%

Compound: Cc1cc(-c2ccc(OC(F)(F)F)cc2)cc2c(OCc3nnc(C4CC4)o3)noc12 [Example 105, 3-((5-cyclopropyl-1,3,4-oxadiazol-2-yl)methoxy)-7-methyl-5-(4-(trifluoromethoxy)phenyl)benzo[d]isoxazole]
- inhibition at 1 µM [1]: 53.7%
- inhibition at 10 µM [2]: 70.9%

Compound: FC(F)(F)Oc1ccc(-c2ccc3onc(-n4cnc(Cl)c4)c3c2)cc1 [Example 140, 3-(4-chloro-1H-imidazol-1-yl)-5-(4-(trifluoromethoxy)phenyl)benzo[d]isoxazole]
- inhibition at 1 µM [1]: 37.6%
- inhibition at 10 µM [2]: < 5%

Compound: Cc1nnc(C(C)Oc2noc3ccc(-c4ccc(OC(F)(F)F)cc4)cc23)o1 (stereo not drawn) [Example 153, 3-(1-(5-methyl-1,3,4-oxadiazol-2-yl)ethoxy)-5-(4-(trifluoromethoxy)phenyl)benzo[d]isoxazole]
- inhibition at 0.3 µM [1]: 51.3%
- inhibition at 1 µM [1]: 67.6%
- inhibition at 10 µM [2]: 53.7%

Compound: Cc1nnc(COc2noc3ccc(-c4ccc(OC(F)(F)F)cc4)cc23)s1 [Example 101, 3-((5-methyl-1,3,4-thiadiazol-2-yl)methoxy)-5-(4-(trifluoromethoxy)phenyl)benzo[d]isoxazole]
- inhibition at 1 µM [1]: 54.6%
- inhibition at 10 µM [2]: 30.5%

Compound: O=C(COc1noc2ccc(-c3ccc(OC(F)(F)F)cc3)cc12)N1CCCC1 [Example 121, 1-(pyrrolidin-1-yl)-2-((5-(4-(trifluoromethoxy)phenyl)benzo[d]isoxazol-3-yl)oxy)ethan-1-one]
- inhibition at 0.3 µM [1]: 39%
- inhibition at 1 µM [1]: 77.7%
- inhibition at 10 µM [2]: 57.8%

Compound: CN1CCN(c2noc3ccc(-c4ccc(OC(F)(F)F)cc4)cc23)CC1 [Example 127, 3-(4-methylpiperazin-1-yl)-5-(4-(trifluoromethoxy)phenyl)benzo[d]isoxazole]
- inhibition at 1 µM [1]: 37.4%
- inhibition at 10 µM [2]: 76.5%

Compound: Fc1cc(C(F)(F)F)ccc1-c1ccc2onc(OCc3ncccn3)c2c1 [Example 6, 5-(2-fluoro-4-(trifluoromethyl)phenyl)-3-(pyrimidin-2-ylmethoxy)benzo[d]isoxazole]
- inhibition at 1 µM [1]: 51.1%
- inhibition at 10 µM [2]: < 5%

Compound: FC(F)(F)Oc1ccc(-c2ccc3onc(OCc4nnc(C5CC5)s4)c3c2)cc1 [Example 154, 3-((5-cyclopropyl-1,3,4-thiadiazol-2-yl)methoxy)-5-(4-(trifluoromethoxy)phenyl)benzo[d]isoxazole]
- inhibition at 1 µM [1]: 39.2%
- inhibition at 10 µM [2]: 27%

Compound: CN(C)c1noc2ccc(-c3ccc(OC(F)(F)F)cc3)cc12 [Example 133, N,N-dimethyl-5-(4-(trifluoromethoxy)phenyl)benzo[d]isoxazol-3-amine]
- inhibition at 1 µM [1]: 45.8%
- inhibition at 10 µM [2]: 29.2%

Compound: CC(C)NC(=O)COc1noc2ccc(-c3ccc(OC(F)(F)F)cc3)cc12 [Example 122, N-isopropyl-2-((5-(4-(trifluoromethoxy)phenyl)benzo[d]isoxazol-3-yl)oxy)acetamide]
- inhibition at 1 µM [1]: 41.3%
- inhibition at 10 µM [2]: 29.7%

Compound: CC(C)c1nnc(COc2noc3ccc(-c4ccc(OC(F)(F)F)cc4)cc23)o1 [Example 100, 3-((5-isopropyl-1,3,4-oxadiazol-2-yl)methoxy)-5-(4-(trifluoromethoxy)phenyl)benzo[d]isoxazole]
- inhibition at 0.3 µM [1]: 31.7%
- inhibition at 1 µM [1]: 61.9%
- inhibition at 10 µM [2]: 11%

Compound: Cc1cc2onc(OCc3ncccn3)c2cc1-c1ccc(C(F)(F)F)cc1F [Example 28, 5-(2-fluoro-4-(trifluoromethyl)phenyl)-6-methyl-3-(pyrimidin-2-ylmethoxy)benzo[d]isoxazole]
- inhibition at 0.3 µM [1]: 26.7%
- inhibition at 1 µM [1]: 54.4%
- inhibition at 10 µM [2]: < 5%

Compound: CN1CCC[C@H]1COc1noc2ccc(-c3ccc(OC(F)(F)F)cc3)cc12 [Example 71, (S)-3-((1-methylpyrrolidin-2-yl)methoxy)-5-(4-(trifluoromethoxy)phenyl)benzo[d]isoxazole]
- inhibition at 0.3 µM [1]: 41.7%
- inhibition at 1 µM [1]: 81.5%
- inhibition at 10 µM [2]: 89.6%

Compound: Cc1nnc(COc2noc3c(F)cc(-c4ccc(OC(F)(F)F)cc4)cc23)o1 [Example 155, 7-fluoro-3-((5-methyl-1,3,4-oxadiazol-2-yl)methoxy)-5-(4-(trifluoromethoxy)phenyl)benzo[d]isoxazole]
- inhibition at 0.3 µM [1]: 47%
- inhibition at 1 µM [1]: 69.2%
- inhibition at 10 µM [2]: 58.6%

Compound: Cc1cnc(COc2noc3ccc(-c4ccc(OC(F)(F)F)cc4)cc23)cn1 [Example 73, 3-((5-methylpyrazin-2-yl)methoxy)-5-(4-(trifluoromethoxy)phenyl)benzo[d]isoxazole]
- inhibition at 0.3 µM [1]: 20.4%
- inhibition at 1 µM [1]: 66.2%
- inhibition at 10 µM [2]: < 5%

Compound: Cc1cc(-c2ccc(OC(F)(F)F)cc2)cc2c(OCc3ncccn3)noc12 [Example 16, 7-methyl-3-(pyrimidin-2-ylmethoxy)-5-(4-(trifluoromethoxy)phenyl)benzo[d]isoxazole]
- inhibition at 1 µM [1]: 54.2%
- inhibition at 10 µM [2]: 18%

Compound: FC(F)(F)Oc1ccc(-c2ccc3onc(-n4cncn4)c3c2)cc1 [Example 136, 3-(1H-1,2,4-triazol-1-yl)-5-(4-(trifluoromethoxy)phenyl)benzo[d]isoxazole]
- inhibition at 1 µM [1]: 44.8%
- inhibition at 10 µM [2]: < 5%

Compound: CC(C)c1nccn1-c1noc2ccc(-c3ccc(OC(F)(F)F)cc3)cc12 [Example 144, 3-(2-isopropyl-1H-imidazol-1-yl)-5-(4-(trifluoromethoxy)phenyl)benzo[d]isoxazole]
- inhibition at 0.3 µM [1]: 25.9%
- inhibition at 1 µM [1]: 55.7%
- inhibition at 10 µM [2]: 75.8%

Compound: COc1cc(OC(F)(F)F)ccc1-c1ccc2onc(OCc3ncccn3)c2c1 [Example 4, 5-(2-methoxy-4-(trifluoromethoxy)phenyl)-3-(pyrimidin-2-ylmethoxy)benzo[d]isoxazole]
- inhibition at 0.3 µM [1]: 29.7%
- inhibition at 1 µM [1]: 62.9%
- inhibition at 10 µM [2]: 13.9%
